Species on record: Cavia porcellus
Experiment: Tested for antagonism of the contractile effect on guinea pig ileum preparations
Type: functional
Conditions: read-out: pA2 (converted)

COc1ccccc1[C@H](C)C(=O)N1C[C@@H]2[C@H](C1)C(c1ccccc1)(c1ccccc1)CC[C@@]2(O)c1ccccc1OC [DAPITANT]
Kb: 8.91 nM

Source: ChEMBL document CHEMBL1127259, “Synthesis of RPR 100893, prototype of a new series of potent and selective non peptide NK1 antagonists : the triarylperhydroisoindolols” (Bioorg Med Chem Lett, 1994)
